Molecules are shown by their SMILES. Activity calls are given as the source filed them. The rule behind the calls is not given here.

Assay type in all cases: functional, cell-based
In experiment [1] the test system is HT-29. Kind of experiment: Cytotoxicity against human HT-29 cells by SRB method. In general terms: The SRB assay estimates cell density from bound dye.
Experiment [2] has as its system A549. Description: Cytotoxicity against human A549 cells by SRB method.
Experiment [3] concerns HT-29. Description: Cytotoxicity against human HT-29 cells upto 100 uM by SRB method.
Experiment [4] has as its system A549. Kind of experiment: Cytotoxicity against human A549 cells upto 100 uM by SRB method.

Take `CC[C@@]1(C(=O)NCCN2CCOCC2)OC(=O)c2c1cc1n(c2=O)Cc2cc3ccccc3nc2-1`: the half-maximal inhibitory concentration (IC50) was 39.9 µM in the experiment with HT-29 [1] and 25.6 µM with A549 [2].

Regarding `CCCCNC(=O)[C@]1(CC)OC(=O)c2c1cc1n(c2=O)Cc2cc3ccccc3nc2-1`, the figures for the IC50 with HT-29 [1] and in the experiment with A549 [2] were 68.3 µM and 70.1 µM, respectively.

As for `CC[C@@]1(C(=O)NCCN2CCOCC2)OC(=O)c2c1cc1n(c2=O)Cc2c-1nc1ccc(OC)cc1c2C1CCCC1`, the IC50 came out at 62.9 µM with HT-29 [1] and 96.5 µM in the experiment on A549 [2].

Turning to `CCc1c2c(nc3ccc(OC)cc13)-c1cc3c(c(=O)n1C2)C(=O)O[C@@]3(CC)C(=O)NCCN1CCOCC1`, the outcome in the experiment with HT-29 [3] and with A549 [4] was inactive.

`CC[C@@]1(C(=O)NCCN2CCCCC2)OC(=O)c2c1cc1n(c2=O)Cc2cc3ccccc3nc2-1`: the figures for the IC50 in the experiment on HT-29 [1] and in the experiment with A549 [2] were 31.6 µM and 74.9 µM, respectively.

As for `CC[C@@]1(C(=O)NCCCO)OC(=O)c2c1cc1n(c2=O)Cc2cc3ccccc3nc2-1`, the result in the experiment with HT-29 [3] and in the experiment on A549 [4] was inactive.

In the case of `CC[C@@]1(C(N)=O)OC(=O)c2c1cc1n(c2=O)Cc2cc3ccccc3nc2-1`, the result in the experiment with HT-29 [3] and with A549 [4] was inactive.

For `CCN(CC)CCNC(=O)[C@]1(CC)OC(=O)c2c1cc1n(c2=O)Cc2cc3ccccc3nc2-1`, the half-inhibitory concentration (IC50) was 31.6 µM in the experiment on HT-29 [1] and 65.3 µM in the experiment with A549 [2].

For the molecule `CC[C@@]1(C(=O)NCCN2CCN(C)CC2)OC(=O)c2c1cc1n(c2=O)Cc2cc3ccccc3nc2-1`, the concentration for half-maximal inhibition (IC50) amounted to 7.25 µM with HT-29 [1] and 53.1 µM in the experiment on A549 [2].

As for `CC[C@@]1(C(=O)NCCN2CCOCC2)OC(=O)c2c1cc1n(c2=O)Cc2c-1nc1ccccc1c2C1CCCC1`, the result in the experiment on HT-29 [3] and in the experiment with A549 [4] was inactive.

On to `CC[C@@]1(C(=O)NCCN2CCOCC2)OC(=O)c2c1cc1n(c2=O)Cc2c-1nc1ccccc1c2C(=O)C1CC1`, for which the outcome with HT-29 [3] and with A549 [4] was inactive.

For `CCc1c2c(nc3ccc(O)cc13)-c1cc3c(c(=O)n1C2)COC(=O)[C@]3(O)CC` [7-ETHYL-10-HYDROXYCAMPTOTHECIN], the IC50 in the experiment with HT-29 [1] was 0.12 µM; with A549 [2], 0.08 µM.

On to `CC[C@@]1(C(=O)NCCO)OC(=O)c2c1cc1n(c2=O)Cc2cc3ccccc3nc2-1`, for which the result in the experiment with HT-29 [3] and with A549 [4] was inactive.

Take `CC[C@@]1(C(=O)NCCN2CCSCC2)OC(=O)c2c1cc1n(c2=O)Cc2cc3ccccc3nc2-1`: the outcome in the experiment with HT-29 [3] and in the experiment with A549 [4] was inactive.

On to `CCCCNC(=O)[C@]1(CC)OC(=O)c2c1cc1n(c2=O)Cc2c-1nc1ccccc1c2CC`, for which the result in the experiment with HT-29 [3] and in the experiment on A549 [4] was inactive.

Consider `CC[C@@]1(C(=O)NCCN2CCCC2)OC(=O)c2c1cc1n(c2=O)Cc2cc3ccccc3nc2-1`, for which the IC50 in the experiment with HT-29 [1] is 31.6 µM; in the experiment with A549 [2] it was 94.3 µM.

In the case of `CC[C@@]1(C(=O)NCCN2CCOCC2)OC(=O)c2c1cc1n(c2=O)Cc2c-1nc1ccccc1c2C1CCCCC1`, the outcome with HT-29 [3] and in the experiment with A549 [4] was inactive.

Take `CC[C@@]1(O)C(=O)OCc2c1cc1n(c2=O)Cc2cc3c(CN(C)C)c(O)ccc3nc2-1` [TOPOTECAN]: the IC50 amounted to 0.375 µM in the experiment with HT-29 [1] and 0.48 µM in the experiment on A549 [2].

In general, IC50 refers to the concentration needed to halve the response being measured. A higher IC50 goes with weaker potency.

The record behind these values is ChEMBL document CHEMBL1152179, “Semi-synthesis and biological activity of gamma-lactones analogs of camptothecin” (Bioorg Med Chem Lett, 2008).
